Consider 2 molecules from patent US9447029B2, “Fluorinated arylalkylaminocarboxamide derivatives” (NEWRON PHARMACEUTICALS S.P.A., priority 2011, dated 2016).

Where a name gives a salt, the structure may show the parent alone. Bounds are passed on as bounds.

Series [1] has as its system TTXs sodium channels (ND7/23 cells). As to the kind of experiment: TTXs-sodium channel influx assay (fluorescence, membrane potential kit). It counts as cell-based, rat. Conditions: veratridine 100 μM. Here is the method:
ND7/23 rat dorsal root ganglion-derived cell line endogenously expresses a mixed population of TTXs sodium channels (such as Nav1.3, Nav1.2, Nav1.1, Nav1.6). These cells lack of TTXr sodium channels as shown by the absence of their respective transcripts. ND7/23 cells are grown in Dulbecco's Modified Eagle Medium (DMEM, Invitrogen, CA—USA) supplemented with 10% Foetal Bovine Serum (FBS, Invitrogen, CA—USA) and 1 mM sodium piruvate. The cells are seeded at 50,000 cells/well on 96 poly-L-lysine-coated plates and further incubated for 18-24 h before use.
The Membrane Potential Kit Assay (Molecular Devices, CA—USA), based on a negatively charged fluorescent dye able to monitor changes in membrane potential caused by the sodium influx due to the channel opening, is used for the assay.
Cells are incubated with the dye loading for 30 minutes at 25° C. Then, 100 nM of the toxin Anemonia sulcata (used as enhancer of the channel opener response) alone or in the presence of TTX (as reference standard) or test compound are added for further 15 minutes.
The fluorescence (excitation: 530 nm, emission: 565 nm wavelength) is measured before and after (40-45 s) the automated injection of the sodium channel opener veratridine (100 μM) using a Victor plate reader (Perkin Elmer, MA—USA).
The inhibition curves are calculated from 5 concentrations, each in triplicate, and the IC50 determined using a linear regression analysis.
The results, obtained with some compounds which are representative of the entire class of compounds of the invention are reported in Table 1.

In a further series the target is CYP2D6 (Homo sapiens (Human), UniProt P10635). As to the kind of experiment: Inhibition of Cytochrome P4502D6 (CYP2D6) using Supersomes. It counts as in vitro ADME. Conditions: AMMC substrate, read-out: IC50 (Fluorinated derivative). As for the experimental part:
The inhibition of Cytochrome P4502D6 (CYP2D6) is assessed by performing in vitro inhibition studies using Supersomes, microsomes derived from baculovirus infected insect cells; the baculoviruses are engineered to express one or more drug metabolizing enzyme cDNAs. Supersomes catalyze the same enzymatic reactions as human liver microsome enzymes, but they contain much higher enzyme activity than other microsome sources (Crespi C. L. and Penman B. W., Advances Pharmacology, 43, 171-188 (1997); Crespi C. L. and Miller V. P., Analytical Biochemistry, 248, 188-190 (1997)).
Kits with Supersomes are Supplied by GENTEST (MA, USA).
Test compound is dissolved in DMSO 500× the highest final concentration desired in the IC50 assay. 30 ml of deionized water is pre-warmed to 37° C. and all kit components are placed on ice. For each well of column 1, 149.4 μL of NADPH-Cofactor Mix, (187.5 μl of Cofactors, 150 μl of G6PDH, 100 μl of Control Protein and 14.56 ml of 37° C. water) are added.
In each well from Column 2 to 12, 100 μl of Cofactor/DMSO mix (40 μL DMSO in 9.96 ml of NADPH-Cofactor Mix) are added. To each well of column 1, 0.6 μl of test compound or positive control are added. 50 μl from each well of column 1 are serially diluted to column 8. The extra 50 μl from column 8 are discarded. The plate is covered and pre-incubated at 37° C. for 10 minutes.
Preparation of enzyme/substrate mix: 7.92 ml of pre-warmed deionized water, 75 μl of enzyme, 3 μl of 10 mM AMMC and 2 ml of pre-warmed buffer are mixed.
After the pre-incubation time (10′), 100 μl of enzyme/substrate mix to each well from column 1 to 10 are added. The plate is incubated at 37° C. for 30 minutes. After this time, 75 μl of Stop Reagent to each well are added. For blank controls, 100 μl of enzyme/substrate mix are added to columns 11 and 12.
Plates are read at the Victor plate reader (Perkin Elmer, MA—USA) at 390 nm excitation and 460 nm emission wavelengths.

Chain of CYP2D6 (P10635 whole entry): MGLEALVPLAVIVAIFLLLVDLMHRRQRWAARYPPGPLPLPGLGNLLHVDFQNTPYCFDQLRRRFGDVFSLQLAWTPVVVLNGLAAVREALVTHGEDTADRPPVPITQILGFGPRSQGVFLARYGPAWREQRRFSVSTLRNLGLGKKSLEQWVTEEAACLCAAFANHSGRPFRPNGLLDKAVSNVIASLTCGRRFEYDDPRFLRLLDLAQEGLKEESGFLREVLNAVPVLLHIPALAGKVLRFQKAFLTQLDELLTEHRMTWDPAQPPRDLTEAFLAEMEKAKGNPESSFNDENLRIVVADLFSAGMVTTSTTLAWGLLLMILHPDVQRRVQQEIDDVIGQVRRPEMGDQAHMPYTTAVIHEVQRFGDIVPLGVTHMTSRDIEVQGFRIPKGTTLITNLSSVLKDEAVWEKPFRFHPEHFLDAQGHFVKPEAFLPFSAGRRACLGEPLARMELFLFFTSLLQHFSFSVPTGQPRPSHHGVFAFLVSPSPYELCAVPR

The IC50 is the concentration that gives 50% inhibition. For the molecule `O=C(CNCC(F)(F)c1cccc(OCCCC(F)(F)F)c1)N1CCOCC1` [Example 1-21, 2-{2,2-Difluoro-2-[3-(4,4,4-trifluorobutoxy)-phenyl]-ethylamino}-1-(morpholin-4-yl)-ethanone, hydrochloride], the values for the IC50 (in series [1]; at CYP2D6) were 7.2 µM and greater than 40 µM, respectively.

Regarding `CCCCOc1cccc(C(F)(F)CN(CCCOC)CC(=O)N(C)C)c1` [Example 3-2, 2-{[2,2-Difluoro-2-(3-butoxyphenyl)-ethyl]-(3-methoxypropyl)-amino}-N,N-dimethyl-acetamide, hydrochloride], the half-maximal inhibitory concentration (IC50) in series [1] was 2.4 µM; on CYP2D6, greater than 40 µM.
